# Laboratory results: patent US10913757B2, “Hydroxycinnamic derivatives, methods and uses thereof” (UNIVERSIDADE DO PORTO, priority 2016, dated 2021)
# Columns and labels:
# [1] = Iron (II) chelating properties, ferrozine assay; assay type: biochemical; details: 100 μM, EDTA=100%, FIG. 2
# Protocol: In an embodiment, AntiOxCINs iron (II) chelating properties were evaluated by the ferrozine assay using ethylenediaminetetracetic acid (EDTA) as reference.
# In an embodiment, AntiOxCINs iron chelating properties were evaluated by the spectrophotometric ferrozine method performed in a multiplate reader (Powerwave XS Microplate Reader) of Bio-Tech instruments.
# In an embodiment, the AntiOxCINs iron chelating properties were evaluated as follows: in each well, a solution of the test compound (100 μM) and ammonium iron (II) sulphate in ammonium acetate (20 μM) were added, incubated for 10 min and the absorbance was read at 562 nm. Then, a freshly prepared solution of ferrozine (5 mM) was added to each well (96 μM final concentration). After a new incubation at 37° C. for 10 min period, the absorbance of [Fe(ferrozine)3]^2+ complex was measured at 562 nm. Blank wells were run using DMSO instead of the test compounds. EDTA was used as a reference. All compounds were tested at a final concentration of 100 μM. The absorbance of the first reading was subtracted to the final values to abolish any absorbance due to the test compounds. Data are means±SEM of three independent experiments and are expressed as % of Fe(II) chelation (EDTA=100%).
# [2] = test system: mitochondrial permeability transition pore (mPTP) of RLM; assay: Mitochondrial permeability transition pore (mPTP) opening, mitochondrial swelling; assay type: biochemical, rat; details: 2.5, 5 and 10 μM, pre-incubated 5 min before calcium, FIG. 7A-C
# Protocol: In an embodiment, the AntiOxCINs effects on mitochondrial permeability transition pore (mPTP) opening were evaluated. In general, less lipophilic AntiOxCINs had no effect on mPTP opening for all tested concentrations (FIG. 7A-C).
# (§1) In an embodiment, the evaluation of AntiOxCINs functional mitochondrial toxicity profile was performed in rat liver mitochondria (RLM). RLM were prepared by tissue homogenization followed by differential centrifugations in ice-cold buffer containing 250 mM sucrose, 10 mM HEPES (pH 7.4), 1 mM EGTA, and 0.1% fat-free bovine serum albumin. After obtaining a crude mitochondrial preparation, pellets were washed twice and resuspended in washing buffer (250 mM sucrose and 10 mM HEPES, pH 7.4). The protein concentration was determined by the biuret assay using BSA as a standard.
# In an embodiment, the effect of AntiOxCINs on mitochondrial permeability transition pore opening were measured as follows: mitochondrial swelling was estimated by measuring the alterations of light scattered from a mitochondrial suspension, as monitored spectrophotometrically at 540 nm. Increasing concentrations of AntiOxCINs (2.5-10 μM) were added to the reaction medium (200 mM sucrose, 1 mM KH2PO4, 10 mM Tris (pH 7.4), 5 mM succinate and 10 μM EGTA supplemented with 1.5 μM rotenone), in the presence of RLM (1 mg), and allowed to incubate for a 5 min period before the assay. The experiments were initiated by the addition of a suitable concentration of Ca^2+ (15-50 μM), titrated every day. […] The reaction was stirred continuously and the temperature maintained at 37° C. Data are means±SEM of three independent experiments and are expressed as Aabsorbance at 540 nm.
# [3] = test system: rat liver mitochondria (RLM); assay: Mitochondrial respiration of isolated RLM (Clark-type oxygen electrode); assay type: biochemical
# Protocol: (§2) In an embodiment, and as an example, AntiOxCINs and MitoQ toxicity effects on the mitochondrial bioenergetics, namely on RLM ΔΨ and mitochondrial respiration parameters, were measured. The […] represents the main component of the electrochemical gradient generated by mitochondrial respiration and accounts for more than 90% of the total available energy. For mitochondrial respiration assays, glutamate/malate (for complex I) and succinate (for complex II) were used as substrates. In addition, the mitochondrial oxidative phosphorylation coupling index, known as respiratory control ratio (RCR, state 3/state 4 respiration) and ADP/O index (the coupling between ATP synthesis and oxygen consumption) were also calculated. AntiOxCINs and MitoQ were tested at antioxidant-relevant concentrations, with 10 μM being the highest concentration.
# (§3) In an embodiment, the evaluation of AntiOxCINs functional mitochondrial toxicity profile was performed in rat liver mitochondria (RLM). […] The protein concentration was determined by the biuret assay using BSA as a standard.
# In an embodiment, the evaluation of AntiOxCINs effect on mitochondrial respiration was performed as follows: the respiration of isolated RLM was evaluated polarographically with a Clark-type oxygen electrode, connected to a suitable recorder in a 1 mL thermostated water-jacketed chamber with magnetic stirring, at 37° C.^1. […] Increasing concentrations of AntiOxCINs (2.5-10 μM) were added to the reaction medium containing respiratory substrates glutamate/malate (10 mM and 5 mM respectively) or succinate (5 mM) and RLM (1 mg) and allowed to incubate for a 5 min period prior to the assay. State 2 was considered as the respiration during the 5 min incubation time with AntiOxCINs. […] State 4 was determined after ADP phosphorylation finished. Subsequent addition of oligomycin (2 μg/ml) inhibited ATP-synthase and originated the oligomycin-inhibition respiration state. Finally, 1 μM FCCP was added to induce uncoupled respiration.
# [4] = test system: rat liver mitochondria (RLM); assay: Mitochondrial transmembrane electric potential (ΔΨ) of RLM, safranine fluorescence; assay type: biochemical
# Protocol: as §2, §3
# Then, 1 μM FCCP was added at the end of all experiments to depolarize mitochondria. ΔΨ was calculated using a calibration curve obtained when RLM were incubated in a K^+-free reaction medium containing 200 mM sucrose, 1 mM NaH2PO4, 10 mM Tris (pH 7.4) and 10 μM EGTA, supplemented with 0.4 μg valinomicin. […] “Repolarization” corresponded to the recovery of membrane potential after the complete phosphorylation of ADP added. Lag phase reflected the time required to phosphorylate the added ADP. […] Data are means±SEM of five independent experiments.
# [5] = test system: rat liver mitochondria (RLM) membranes; assay: RLM lipid peroxidation, TBARS assay (FeSO4/H2O2/ascorbate); assay type: biochemical; details: 5 μM pre-incubation, FIG. 4A
# Protocol: In an embodiment, and as an example, AntiOxCINs antioxidant performance, on the protection of lipid peroxidation of RLM membranes was determined. Two different oxidative stressor agents, FeSO4/H2O2/ascorbate and ADP/FeSO4, and two end-points, TBARS production and oxygen-consumption, respectively, have been used. MitoQ was used as reference (FIGS. 4 and 5).
# as §1, with “After obtaining a crude mitochondrial preparation, pellets were washed twice and resuspended in washing buffer (250 mM sucrose and 10 mM HEPES, pH 7.4).” left out
# In an embodiment, the effect of AntiOxCINs on RLM lipid peroxidation was measured by thiobarbituric acid reactive species (TBARS) assay as follows: RLM (2 mg protein/ml) were incubated in 0.8 mL medium containing 100 mM KCl, 10 mM Tris-HCl and pH 7.6, at 37° C., supplemented with 5 mM glutamate/2.5 mM malate as substrate. […] The fluorescence of aliquots (250 μL) of the organic layer was analyzed in a plate reader (λEx=515 nm; λEm=553 nm) for TBARS. […] Data are means±SEM of three independent experiments and are expressed as % of control (control=100%).
structure (smiles),measurement,setting,value
"O=C(O)CN(CCN(CC(=O)O)CC(=O)O)CC(=O)O [EDTA, ethylenediaminetetracetic acid, reference compound]",iron (II) chelation,[1],able to chelate all the iron in solution
"COC1=C(OC)C(=O)C(CCCCCCCCCC[P+](c2ccccc2)(c2ccccc2)c2ccccc2)=C(C)C1=O.CS(=O)(=O)[O-] [MitoQ, [10-(4,5-dimethoxy-2-methyl-3,6-dioxo-1,4-cyclohexadien-1-yl)decyl]triphenylphosphonium methanesulfonate, reference compound]",iron (II) chelation,[1],not shared by MitoQ
same,effect on calcium-dependent mPTP opening,[2],no effect in mPTP induction
same,toxicity on the mitochondrial bioenergetic apparatus of RLM,"[3]; 2.5 μM, FIG. 6A and Table 2",caused toxicity
same,effect on respiratory states,"[3]; concentrations up to 5 μM, glutamate/malate, FIG. 6A","increase on state 2, state 4 and oligomycin-inhibited respiration and a decrease on state 3 and FCCP-uncoupled respiration"
same,ADP/O,"[3]; glutamate/malate, 2.5 μM",2.2 ± 0.1
same,"RCR (respiratory control ratio, state 3/state 4)","[3]; glutamate/malate, 2.5 μM",4.2 ± 0.6
same,ADP/O,"[3]; glutamate/malate, 5 μM",1.9 ± 0.1
same,"RCR (respiratory control ratio, state 3/state 4)","[3]; glutamate/malate, 5 μM",2.7 ± 0.3
same,ADP/O,"[3]; glutamate/malate, 10 μM",2.0 ± 0.2
same,"RCR (respiratory control ratio, state 3/state 4)","[3]; glutamate/malate, 10 μM",1.3 ± 0.1
same,coupling of RLM,"[3]; succinate, highest concentration tested, FIG. 6A",completely uncoupled
same,ADP/O,"[3]; succinate, 2.5 μM",1.3 ± 0.1
same,"RCR (respiratory control ratio, state 3/state 4)","[3]; succinate, 2.5 μM",2.6 ± 0.2
same,ADP/O,"[3]; succinate, 5 μM",1.3 ± 0.1
same,"RCR (respiratory control ratio, state 3/state 4)","[3]; succinate, 5 μM",2.4 ± 0.2
same,repolarization after ADP-induced depolarization,[4]; 10 μM,no repolarization occurred
same,ADP-induced depolarization (ΔΨ in - mV),"[4]; glutamate/malate, 2.5 μM",173.0 ± 9.3 mV
same,Lag Phase,"[4]; glutamate/malate, 2.5 μM",86.5 ± 5.6 s
same,Maximum potential (ΔΨ in - mV),"[4]; glutamate/malate, 2.5 μM",195.7 ± 10.8 mV
same,Repolarization Potential (ΔΨ in - mV),"[4]; glutamate/malate, 2.5 μM",191.1 ± 11.7 mV
same,ADP-induced depolarization (ΔΨ in - mV),"[4]; glutamate/malate, 5 μM",173.5 ± 8.9^ mV
same,Lag Phase,"[4]; glutamate/malate, 5 μM",84.5 ± 7.1 s
same,Maximum potential (ΔΨ in - mV),"[4]; glutamate/malate, 5 μM",188.3 ± 10.6 mV
same,Repolarization Potential (ΔΨ in - mV),"[4]; glutamate/malate, 5 μM",185.0 ± 9.4 mV
same,Maximum potential (ΔΨ in - mV),"[4]; glutamate/malate, 10 μM",113.9 ± 10.2 mV
same,ADP-induced depolarization (ΔΨ in - mV),"[4]; succinate, 2.5 μM",162.1 ± 6.0 mV
same,Lag Phase,"[4]; succinate, 2.5 μM",104.8 ± 9.9 s
same,Maximum potential (ΔΨ in - mV),"[4]; succinate, 2.5 μM",181.6 ± 8.3 mV
same,Repolarization Potential (ΔΨ in - mV),"[4]; succinate, 2.5 μM",182.7 ± 9.1 mV
same,ADP-induced depolarization (ΔΨ in - mV),"[4]; succinate, 5 μM",157.0 ± 6.4^ mV
same,Lag Phase,"[4]; succinate, 5 μM",92.6 ± 19.4 s
same,Maximum potential (ΔΨ in - mV),"[4]; succinate, 5 μM",170.2 ± 8.1 mV
same,Repolarization Potential (ΔΨ in - mV),"[4]; succinate, 5 μM",170.8 ± 8.7 mV
same,Maximum potential (ΔΨ in - mV),"[4]; succinate, 10 μM",108.9 ± 3.8 mV
same,prevention of mitochondria lipid peroxidation (TBARS levels),[5],effectively inhibited lipid peroxidation
